Data taken from PMC7016291 (Acta Pharmaceutica Sinica. B, 2019).
Where “and” joins values, the source holds several entries; their conditions need not be identical. Equal entries are not always repeated. Where two headings read alike, the source gives them in different places. Each block holds one compound with its values, some of them ahead of it.

Columns and labels:
[1] = Kinetic aqueous solubility; conditions: kinetic from dmso stock
[2] = tested on: HIV-1 RES056 (K103N/Y181C); test: Anti-HIV-1 activity against double mutant RES056 in MT-4 cells; format: cell-based
[3] = tested on: HIV-1 Y188L; test: Anti-HIV-1 activity against mutant strain Y188L in MT-4 cells; format: cell-based
[4] = tested on: HIV-2 (ROD); test: Anti-HIV activity in MT-4 cells; format: cell-based; conditions: Human immunodeficiency virus 2, MT4, read-out: EC50 ROD
[5] = tested on: HIV-1 F227L + V106A; test: Anti-HIV-1 activity against double mutant F227L + V106A in MT-4 cells; format: cell-based
[6] = tested on: HIV-1 E138K; test: Anti-HIV-1 activity against mutant strain E138K in MT-4 cells; format: cell-based
[7] = Cytotoxicity in uninfected MT-4 cells; format: cell-based; conditions: human, uninfected MT-4 cells
[8] = biological target: HIV-1 RT RNase H (Human immunodeficiency virus type 1 group M subtype B, UniProt P03366); test: HIV-1 RT RNase H inhibition; format: biochemical
[9] = biological target: WT HIV-1 RT (Human immunodeficiency virus type 1 group M subtype B, UniProt P03366); test: HIV-1 RT inhibition assay; format: biochemical
[10] = tested on: HIV-1 Y181C; test: Anti-HIV-1 activity against mutant strain Y181C in MT-4 cells; format: cell-based
[11] = tested on: HIV-1 L100I; test: Anti-HIV-1 activity against mutant strain L100I in MT-4 cells; format: cell-based
[12] = tested on: HIV-1 K103N; test: Anti-HIV-1 activity against mutant strain K103N in MT-4 cells; format: cell-based
[13] = tested on: MT-4 cells; test: Cytotoxicity in uninfected MT-4 cells; format: cell-based; conditions: uninfected MT-4 cell viability reduced by 50%
[14] = cited from earlier work
[15] = Plasma protein binding, dialysis equilibrium method, human
[16] = Plasma protein binding, dialysis equilibrium method, rat
[17] = aqueous solution at pH 2.0, pH 2, aqueous buffer
[18] = aqueous solution at pH 7.0, pH 7, aqueous buffer
[19] = aqueous solution at pH 7.4, pH 7.4, aqueous buffer
[20] = Human immunodeficiency virus 1, MT4, read-out: EC50 RES056
[21] = Human immunodeficiency virus 1, MT4, read-out: EC50 Y188L
[22] = Human immunodeficiency virus 1, MT4, read-out: EC50 F227L + V106A
[23] = Human immunodeficiency virus 1, MT4, read-out: EC50 E138K
[24] = Human immunodeficiency virus 1, MT4, read-out: EC50 Y181C
[25] = Human immunodeficiency virus 1, MT4, read-out: EC50 L100I
[26] = Human immunodeficiency virus 1, MT4, read-out: EC50 K103N

SMILES: Cc1cc(-c2ccc(C#N)cc2)cc(C)c1Nc1nc(Nc2ccc(C#N)cc2)nc(N2CCC(O)C2)n1 (centres unmarked) [Compound 6k, 4ʹ-((4-((4-Cyanophenyl)amino)-6-(3-hydroxypyrrolidin-1-yl)-1,3,5-triazin-2-yl)-amino)-3ʹ,5ʹ-dimethyl-[1,1ʹ-biphenyl]-4-carbonitrile]
solubility kinetic ([1]; FaSSIF): 53.4 µg/mL and 104 µM
solubility kinetic [1, 17]: 53.7 µg/mL and 104 µM
solubility kinetic [1, 18]: < 0.784 µg/mL and < 1.56 µM
solubility kinetic [1, 19]: < 0.784 µg/mL and < 1.56 µM
EC50 [2, 20]: 0.06 µM
EC50 [3, 21]: 0.01 ± 0.003 µM
EC50 [4]: > 4.54 µM
EC50 [5, 22]: 1.04 µM
EC50 [6, 23]: 0.0035 ± 0.0008 µM
CC50 at 4 days [7]: 4.54 ± 2.56 µM
IC50 [8]: > 1190 µM
IC50 [9]: 0.103 µM
EC50 [10, 24]: 0.003 ± 0.0002 µM
EC50 [11, 25]: 0.0041 ± 0.0005 µM
EC50 [12, 26]: 0.0023 ± 0.0005 µM

SMILES: Cc1cc(-c2ccc(C#N)cc2)cc(C)c1Nc1nc(NCCN2CCN(C)CC2)nc(Nc2ccc(C#N)cc2)n1 [Compound 6n, 4ʹ-((4-((4-Cyanophenyl)amino)-6-((2-(4-methylpiperazin-1-yl)ethyl)amino)-1,3,5-triazin-2-yl)amino)-3ʹ,5ʹ-dimethyl-[1,1ʹ-biphenyl]-4-carbonitrile]
EC50 [4]: > 2.34 µM
CC50 at 4 days [7]: 2.34 ± 0.64 µM
IC50 [8]: > 1070 µM
IC50 [9]: 0.156 µM

SMILES: O=C1Nc2ccc(Cl)cc2[C@@](C#CC2CC2)(C(F)(F)F)O1 [EFV, reference compound]
EC50 ([2]; read-out: EC50 RES056, MT-4 cells, double mutant K103N/Y181C): 0.071 ± 0.036 µM
EC50 ([3]; read-out: EC50 Y188L, MT-4 cells, single mutant): 0.082 ± 0.007 µM
EC50 ([5]; read-out: EC50 F227L + V106A, MT-4 cells, double mutant): 0.084 ± 0.02 µM
EC50 ([6]; read-out: EC50 E138K, MT-4 cells, single mutant): 0.0015 ± 0.0001 µM
CC50 [13]: >2.0 µM
EC50 ([10]; read-out: EC50 Y181C, MT-4 cells, single mutant): 0.0013 ± 0.0001 µM
EC50 ([11]; read-out: EC50 L100I, MT-4 cells, single mutant): 0.014 µM
EC50 ([12]; read-out: EC50 K103N, MT-4 cells, single mutant): 0.03 ± 0.011 µM

solubility kinetic ([1]; FaSSIF): 13.2 µg/mL and 30.3 µM
solubility kinetic [1, 17]: 127 µg/mL and 291 µM
solubility kinetic [1, 18]: < 1 µg/mL and < 2.3 µM
solubility kinetic [1, 19]: < 1 µg/mL and < 2.3 µM
SMILES: Cc1cc(C#N)cc(C)c1Oc1nc(Nc2ccc(C#N)cc2)nc(N)c1Br [ETR, etravirine, reference compound]
aqueous solubility [14]: lower than 1 μg/mL
CC50 ([13]; listed as ETV): >2.0 µM
CC50 at 4 days [7]: > 2 µg/mL

SMILES: Cc1ccnc2c1NC(=O)c1cccnc1N2C1CC1 [NVP, nevirapine, reference compound]
EC50 [2, 20]: > 4 µM
EC50 [3, 21]: > 4 µM
EC50 [5, 22]: > 4 µM
EC50 [6, 23]: 0.057 ± 0.006 µM
CC50 at 4 days [7]: > 4 µg/mL
EC50 [10, 24]: > 4 µM
EC50 [11, 25]: 0.46 ± 0.11 µM
EC50 [12, 26]: 3.19 ± 3.9 µM

recovery at 2 μmol/L [15]: 86%
recovery at 2 μmol/L [16]: 99%
SMILES: CC(=O)CC(c1ccccc1)c1c(O)c2ccccc2oc1=O (centres unmarked) [Warfarin, reference compound]
